# In US12371454B2, “Cyclic peptide compound having Kras inhibitory action” (priority 2019, dated 2025):
# Positions of bridges follow the written chain, without caps; N, C: chain ends. Non-standard residues stand in square brackets, D forms with d. Residues, ends and D or L forms follow the SMILES beside them. *: point of attachment. hPhe(3-Cl-4-CF3) = N[C@@H](CCc1ccc(C(F)(F)F)c(Cl)c1)C(=O)O; hPhe(3-F,4-CF3) = N[C@@H](CCc1ccc(C(F)(F)F)c(F)c1)C(=O)O; NMePhe(4-CF3) = CN[C@@H](Cc1ccc(C(F)(F)F)cc1)C(=O)O; hPhe(4-CF3) = N[C@@H](CCc1ccc(C(F)(F)F)cc1)C(=O)O; NMeAla(4-thiazolyl) = CN[C@@H](Cc1cscn1)C(=O)O; NMePhe(3-CN) = CN[C@@H](Cc1cccc(C#N)c1)C(=O)O; NMeAbu(4,4,4-F3) = CN[C@@H](CC(F)(F)F)C(=O)O; NMePhe(4-Cl) = CN[C@@H](Cc1ccc(Cl)cc1)C(=O)O; NMePhe(4-Me) = CN[C@@H](Cc1ccc(C)cc1)C(=O)O; NMePhe(2-F) = CN[C@@H](Cc1ccccc1F)C(=O)O; NMeGly(cPent) = CN[C@H](C(=O)O)C1CCCC1; NMeCha = CN[C@@H](CC1CCCCC1)C(=O)O; NMeChg = CN[C@H](C(=O)O)C1CCCCC1; NMeF = CN[C@@H](Cc1ccccc1)C(=O)O; NMeI = CC[C@H](C)[C@H](NC)C(=O)O; N(CH2CH2)2CF2 = FC1(F)CCN(*)CC1; Cha = N[C@@H](CC1CCCCC1)C(=O)O; NMeD = CN[C@@H](CC(=O)O)C(=O)O; NMeL = CN[C@@H](CC(C)C)C(=O)O; NMeV = CN[C@H](C(=O)O)C(C)C; d(β3hA) = C[C@@H](N)CC(=O)O; NMeS = CN[C@@H](CO)C(=O)O; Morpholide = C1CN(*)CCO1; NMeA = CN[C@@H](C)C(=O)O; Piperidide = C1CCN(*)CC1; Pyrrolidide = C1CCN(*)C1; dNMeA = CN[C@H](C)C(=O)O; Ac5c = NC1(C(=O)O)CCCC1; Aze = O=C(O)[C@@H]1CCN1; βAla = NCCC(=O)O; Sar = CNCC(=O)O; Propyl = CCC*
# Biological target: T1, Kras and SOS1 (biotin-tagged human Kras loaded with GDP, His-tagged human SOS1) (Homo sapiens, UniProt P01116, G12D)
# T1 construct: made in house; host or cells: E. coli (stated for Kras only)
# Assay: Protein-protein interaction inhibition between Kras and SOS1 (KrasGl2D-SOS PPI) using AlphaScreen
# Format: binding
# Conditions: AlphaScreen; biotin-tagged human Kras loaded with GDP, His-tagged human SOS1; read-out: KRAS G12D-SOS PPI IC50
# Procedure, shortened: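 Binding between SOS1 and Kras is detected as bead-proximity luminescence: illuminate Ni-conjugated donors (680 nm), collect 520-620 nm emission from streptavidin-conjugated acceptors; Kras carries biotin and GDP loaded after purification, SOS1 carries a His tag.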
# T1 sequence (P01116 1-188 isoform P01116-2 G12D): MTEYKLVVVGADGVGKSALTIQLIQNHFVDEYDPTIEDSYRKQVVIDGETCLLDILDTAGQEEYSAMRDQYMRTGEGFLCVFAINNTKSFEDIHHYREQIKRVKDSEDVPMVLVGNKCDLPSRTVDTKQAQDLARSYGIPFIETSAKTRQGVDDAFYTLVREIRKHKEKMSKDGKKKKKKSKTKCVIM
row,Structure (SMILES),IC50
1,CC[C@H](C)[C@@H]1NC(=O)[C@H](CC(C)C)N(C)C(=O)C[C@@H](C)NC(=O)[C@H](C(C)C)N(C)C(=O)C2(CCCC2)NC(=O)[C@@H]2CCCN2C(=O)[C@H](CCc2ccc(C(F)(F)F)c(Cl)c2)NC(=O)CN(C)C(=O)[C@H](Cc2cccc(C#N)c2)N(C)C(=O)CN(C)C(=O)CN(C)C1=O [Compound 975] (cyclo([Ac5c][NMeV][d(β3hA)][NMeL]I[Sar][Sar][NMePhe(3-CN)][Sar][hPhe(3-Cl-4-CF3)]P)),22 nM
2,CC[C@H](C)[C@@H]1NC(=O)[C@H](CC(C)C)N(C)C(=O)CCNC(=O)[C@H](C(C)C)N(C)C(=O)C2(CCCC2)NC(=O)[C@@H]2CCCN2C(=O)[C@H](CCc2ccc(C(F)(F)F)c(Cl)c2)NC(=O)CN(C)C(=O)[C@H](CC2CCCCC2)N(C)C(=O)CN(C)C(=O)CN(C)C1=O [Compound 979] (cyclo([Ac5c][NMeV][βAla][NMeL]I[Sar][Sar][NMeCha][Sar][hPhe(3-Cl-4-CF3)]P)),37 nM
3,"CC[C@H](C)[C@@H]1NC(=O)[C@H](CC(F)(F)F)N(C)C(=O)C[C@@H](C(=O)N2CCOCC2)N(C)C(=O)[C@H](C2CCCCC2)N(C)C(=O)C2(CCCC2)NC(=O)[C@@H]2CCCN2C(=O)[C@H](CCc2ccc(C(F)(F)F)c(Cl)c2)NC(=O)CN(C)C(=O)[C@H](Cc2ccc(C(F)(F)F)cc2)N(C)C(=O)CN(C)C(=O)CN(C)C1=O [Compound 981] ([NMeAbu(4,4,4-F3)]I[Sar][Sar][NMePhe(4-CF3)][Sar][hPhe(3-Cl-4-CF3)]P[Ac5c][NMeChg][NMeD]-Morpholide; lactam N-11)",0.37 nM
4,CC[C@H](C)[C@@H]1NC(=O)[C@H](CC(C)C)N(C)C(=O)C[C@@H](C(=O)N(C)C)N(C)C(=O)[C@H]([C@@H](C)CC)N(C)C(=O)[C@H](C(C)C)NC(=O)[C@H](Cc2cscn2)N(C)C(=O)[C@H](CCc2ccc(C(F)(F)F)c(Cl)c2)NC(=O)CN(C)C(=O)[C@H](Cc2ccc(C)cc2)N(C)C(=O)[C@@H]2CCN2C(=O)[C@H](C)N(C)C1=O [Compound 982] ([NMeL]I[NMeA][Aze][NMePhe(4-Me)][Sar][hPhe(3-Cl-4-CF3)][NMeAla(4-thiazolyl)]V[NMeI][NMeD]-NMe2; lactam N-11),48 nM
5,CC[C@H](C)[C@@H]1NC(=O)[C@H](CC(C)C)N(C)C(=O)C[C@@H](C(=O)N2CCCCC2)N(C)C(=O)[C@H](C2CCCC2)N(C)C(=O)C2(CCCC2)NC(=O)[C@H](CC(=O)N2CCC(F)(F)CC2)N(C)C(=O)[C@H](CCc2ccc(C(F)(F)F)c(Cl)c2)NC(=O)CN(C)C(=O)[C@H](CC2CCCCC2)N(C)C(=O)[C@@H]2CCN2C(=O)[C@H](C)N(C)C1=O [Compound 984] ([NMeL]I[NMeA][Aze][NMeCha][Sar][hPhe(3-Cl-4-CF3)][NMeD](N(CH2CH2)2CF2)[Ac5c][NMeGly(cPent)][NMeD]-Piperidide; lactam N-11),25 nM
6,CC(C)C[C@H]1C(=O)N[C@@H](CC2CCCCC2)C(=O)N(C)CC(=O)N(C)CC(=O)N(C)[C@@H](CC2CCCCC2)C(=O)N(C)CC(=O)N[C@@H](CCc2ccc(C(F)(F)F)c(Cl)c2)C(=O)N2CCC[C@H]2C(=O)NC2(CCCC2)C(=O)N(C)[C@@H](C(C)C)C(=O)N(C)[C@H](C(=O)N2CCCCC2)CC(=O)N1C [Compound 986] ([NMeL][Cha][Sar][Sar][NMeCha][Sar][hPhe(3-Cl-4-CF3)]P[Ac5c][NMeV][NMeD]-Piperidide; lactam N-11),25 nM
7,"CCCOC[C@H]1C(=O)N(C)CC(=O)N[C@@H](CCc2ccc(C(F)(F)F)c(F)c2)C(=O)N2CCC[C@H]2C(=O)NC2(CCCC2)C(=O)N(C)[C@@H](C2CCCC2)C(=O)N(C)[C@H](C(=O)N2CCCC2)CC(=O)N(C)[C@@H](CC(C)C)C(=O)N[C@@H]([C@@H](C)CC)C(=O)N(C)[C@@H](C)C(=O)N2CC[C@H]2C(=O)N1C [Compound 987] ([NMeL]I[NMeA][Aze][NMeS](Propyl)[Sar][hPhe(3-F,4-CF3)]P[Ac5c][NMeGly(cPent)][NMeD]-Pyrrolidide; lactam N-11)",0.96 nM
8,CC[C@H](C)[C@@H]1NC(=O)[C@H](C)NC(=O)C[C@@H](C(=O)N2CCCC2)NC(=O)[C@H](CC(C)C)N(C)C(=O)[C@H](Cc2ccccc2)N(C)C(=O)[C@H](CC(C)C)NC(=O)[C@H](CCc2ccc(C(F)(F)F)cc2)NC(=O)CN(C)C(=O)[C@H](Cc2ccc(Cl)cc2)N(C)C(=O)CN(C)C(=O)CN(C)C1=O [Compound 989] (AI[Sar][Sar][NMePhe(4-Cl)][Sar][hPhe(4-CF3)]L[NMeF][NMeL]D-Pyrrolidide; lactam N-11),34 nM
9,CC[C@H](C)[C@@H]1NC(=O)[C@H](C)N(C)C(=O)C[C@@H](C)NC(=O)[C@H](C2CCCC2)N(C)C(=O)C2(CCCC2)NC(=O)[C@@H]2CCCN2C(=O)[C@H](CCc2ccc(C(F)(F)F)c(Cl)c2)NC(=O)[C@@H](C)N(C)C(=O)[C@H](Cc2ccccc2F)N(C)C(=O)[C@@H]2CCN2C(=O)[C@H](C)N(C)C1=O [Compound 990] (cyclo([Ac5c][NMeGly(cPent)][d(β3hA)][NMeA]I[NMeA][Aze][NMePhe(2-F)][dNMeA][hPhe(3-Cl-4-CF3)]P)),83 nM
